Assay results taken from patent publication US9522914B2, “Azole derivative” (TAISHO PHARMACEUTICAL CO., LTD, priority 2011, dated 2016).

Target: Human V1b receptor (Homo sapiens (Human), UniProt P47901)
Test: Binding Test for V1b Receptor ([3H]AVP, crude membrane preparation of 293FT cells)
Conditions: inhibition of [3H]AVP binding (0.4 to 1 nmol/L), room temperature, 60 minutes
Summary of the method: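 Crude membranes from 293FT cells transiently expressing human V1b, incubated with [3H]AVP (0.4 to 1 nmol/L) and compound (0.01 nmol/L–1 μmol/L final) in Tris pH 7.4 with MgCl2 and 0.1% BSA, 60 min at room temperature. Bound label collected by filtration. Nonspecific binding defined with unlabeled AVP; IC50 from dose-response curve.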

Human V1b receptor, sequence (P47901 whole entry): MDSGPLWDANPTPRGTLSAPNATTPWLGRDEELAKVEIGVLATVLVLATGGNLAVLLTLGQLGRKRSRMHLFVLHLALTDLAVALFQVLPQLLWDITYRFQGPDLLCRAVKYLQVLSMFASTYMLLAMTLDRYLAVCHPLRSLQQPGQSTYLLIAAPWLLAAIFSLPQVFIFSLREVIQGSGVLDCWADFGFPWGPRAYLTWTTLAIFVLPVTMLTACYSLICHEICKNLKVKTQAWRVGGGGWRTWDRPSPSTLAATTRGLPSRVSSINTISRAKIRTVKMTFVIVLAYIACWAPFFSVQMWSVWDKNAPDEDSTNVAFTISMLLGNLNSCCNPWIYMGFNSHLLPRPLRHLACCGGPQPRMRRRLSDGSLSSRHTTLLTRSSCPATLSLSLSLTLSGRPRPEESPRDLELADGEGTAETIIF

Row | Compound | IC50 [nM]
1 | Cc1c(-c2cccc(Cl)c2)n(CC(=O)NC(C)C)c(=O)n1-c1ccc(CCN2CCOCC2)cc1 [Example C-20, 2-[5-(3-chlorophenyl)-4-methyl-3-{4-[2-(morpholin-4-yl)ethyl]phenyl}-2-oxo-2,3-dihydro-1H-imidazol-1-yl]-N-(propan-2-yl)acetamide] | 10 to 100
2 | CC(C)NC(=O)Cc1nc(-c2ccc(CCN3CCOCC3)cc2)nn1-c1cccc(Cl)c1 [Example C-21, 2-[1-(3-chlorophenyl)-3-{4-[2-(morpholin-4-yl)ethyl]phenyl}-1H-1,2,4-triazol-5-yl]-N-(propan-2-yl)acetamide] | 14
3 | CC(C)NC(=O)Cc1nc(-c2ccc(CCN3C4CCC3COC4)cc2)nn1-c1cccc(Cl)c1 [Example C-22, 2-[1-(3-chlorophenyl)-3-{4-[2-(3-oxa-8-azabicyclo[3.2.1]oct-8-yl)ethyl]phenyl}-1H-1,2,4-triazol-5-yl]-N-(propan-2-yl)acetamide] | 8.8
4 | CC(C)NC(=O)Cc1nn(-c2ccc(CCN3C4CCC3COC4)cn2)c(=O)n1-c1cccc(Cl)c1 [Example D-02, 2-[4-(3-chlorophenyl)-1-{5-[2-(3-oxa-8-azabicyclo[3.2.1]oct-8-yl)ethyl]pyridin-2-yl}-5-oxo-4,5-dihydro-1H-1,2,4-triazol-3-yl]-N-(propan-2-yl)acetamide] | 10 to 100
5 | CC(C)NC(=O)Cc1nn(-c2ccc(CCN3C4CCC3COC4)cc2)c(=O)n1-c1cccc(Cl)c1 [Example D-03, 2-[4-(3-chlorophenyl)-1-{4-[2-(3-oxa-8-azabicyclo[3.2.1]oct-8-yl)ethyl]phenyl}-5-oxo-4,5-dihydro-1H-1,2,4-triazol-3-yl]-N-(propan-2-yl)acetamide] | 14
6 | CC(C)NC(=O)Cc1nn(-c2ccc(CCN3CCOCC3)cn2)c(=O)n1-c1cccc(Cl)c1 [Example D-04, 2-[4-(3-chlorophenyl)-1-{5-[2-(morpholin-4-yl)ethyl]pyridin-2-yl}-5-oxo-4,5-dihydro-1H-1,2,4-triazol-3-yl]-N-(propan-2-yl)acetamide] | 100 to 1000
7 | COc1cc(-n2c(CC(=O)NC(C)(C)C)nn(-c3ccc(CCN4CCOCC4)cc3)c2=O)ccc1F [Example D-05, N-tert-butyl-2-[4-(4-fluoro-3-methoxyphenyl)-1-{4-[2-(morpholin-4-yl)ethyl]phenyl}-5-oxo-4,5-dihydro-1H-1,2,4-triazol-3-yl]acetamide] | 2.5
8 | COc1cccc(-n2c(CC(=O)NC(C)(C)C)nn(-c3ccc(CCN4CCOCC4)cc3)c2=O)c1 [Example D-06, N-tert-butyl-2-[4-(3-methoxyphenyl)-1-{4-[2-(morpholin-4-yl)ethyl]phenyl}-5-oxo-4,5-dihydro-1H-1,2,4-triazol-3-yl]acetamide] | 4.6
9 | COc1cccc(-n2c(CC(=O)NC(C)(C)C)nn(-c3ccc(CCN4C5CCC4COC5)cc3)c2=O)c1 [Example D-07, N-tert-butyl-2-[4-(3-methoxyphenyl)-1-{4-[2-(3-oxa-8-azabicyclo[3.2.1]oct-8-yl)ethyl]phenyl}-5-oxo-4,5-dihydro-1H-1,2,4-triazol-3-yl]acetamide] | 5.5
10 | COc1cccc(-n2c(CC(=O)NC(C)(C)C)nn(-c3ccc(CCN4CCOCC4)cn3)c2=O)c1 [Example D-08, N-tert-butyl-2-[4-(3-methoxyphenyl)-1-{5-[2-(morpholin-4-yl)ethyl]pyridin-2-yl}-5-oxo-4,5-dihydro-1H-1,2,4-triazol-3-yl]acetamide] | 10 to 100
11 | COc1cccc(-n2c(CC(=O)NC(C)(C)C)nn(-c3ccc(CCN4C5CCC4COC5)cn3)c2=O)c1 [Example D-09, N-tert-butyl-2-[4-(3-methoxyphenyl)-1-{5-[2-(3-oxa-8-azabicyclo[3.2.1]oct-8-yl)ethyl]pyridin-2-yl}-5-oxo-4,5-dihydro-1H-1,2,4-triazol-3-yl]acetamide] | 10 to 100
12 | COc1cc(-n2c(CC(=O)NC(C)(C)C)nn(-c3ccc(CCN4C5CCC4COC5)cc3)c2=O)ccc1F [Example D-10, N-tert-butyl-2-[4-(4-fluoro-3-methoxyphenyl)-1-{4-[2-(3-oxa-8-azabicyclo[3.2.1]oct-8-yl)ethyl]phenyl}-5-oxo-4,5-dihydro-1H-1,2,4-triazol-3-yl]acetamide] | 7.1
13 | COc1cc(-n2c(CC(=O)NC(C)(C)C)nn(-c3ccc(CCN4CCOCC4)cn3)c2=O)ccc1F [Example D-11, N-tert-butyl-2-[4-(4-fluoro-3-methoxyphenyl)-1-{5-[2-(morpholin-4-yl)ethyl]pyridin-2-yl}-5-oxo-4,5-dihydro-1H-1,2,4-triazol-3-yl]acetamide] | 10 to 100
14 | COc1cc(-n2c(CC(=O)NC(C)(C)C)nn(-c3ccc(CCN4C5CCC4COC5)cn3)c2=O)ccc1F [Example D-12, N-tert-butyl-2-[4-(4-fluoro-3-methoxyphenyl)-1-{5-[2-(3-oxa-8-azabicyclo[3.2.1]oct-8-yl)ethyl]pyridin-2-yl}-5-oxo-4,5-dihydro-1H-1,2,4-triazol-3-yl]acetamide] | 7
15 | CC(C)(C)NC(=O)Cc1nn(-c2ccc(CCN3CCOCC3)cn2)c(=O)n1-c1cccc(Cl)c1 [Example D-15, N-tert-butyl-2-[4-(3-chlorophenyl)-1-{5-[2-(morpholin-4-yl)ethyl]pyridin-2-yl}-5-oxo-4,5-dihydro-1H-1,2,4-triazol-3-yl]acetamide] | 10 to 100
16 | CC(C)(C)NC(=O)Cc1nn(-c2ccc(CCN3C4CCC3COC4)cn2)c(=O)n1-c1cccc(Cl)c1 [Example D-16, N-tert-butyl-2-[4-(3-chlorophenyl)-1-{5-[2-(3-oxa-8-azabicyclo[3.2.1]oct-8-yl)ethyl]pyridin-2-yl}-5-oxo-4,5-dihydro-1H-1,2,4-triazol-3-yl]acetamide] | 10 to 100
17 | CC(C)NC(=O)Cc1nn(-c2ccc(CC(C)N3CCOCC3)cc2)c(=O)n1-c1cccc(Cl)c1 [Example D-17, 2-[4-(3-chlorophenyl)-1-{4-[2-(morpholin-4-yl)propyl]phenyl}-5-oxo-4,5-dihydro-1H-1,2,4-triazol-3-yl]-N-(propan-2-yl)acetamide] | 3.9
18 | CC(C)NC(=O)Cc1nn(-c2ccc(CC(C)N3CCOCC3)cn2)c(=O)n1-c1cccc(Cl)c1 [Example D-19, 2-[4-(3-chlorophenyl)-1-{5-[2-(morpholin-4-yl)propyl]pyridin-2-yl}-5-oxo-4,5-dihydro-1H-1,2,4-triazol-3-yl]-N-(propan-2-yl)acetamide] | 10 to 100
19 | CC(C)NC(=O)Cc1nn(-c2ccc(CCN3CCOCC3)c(F)c2)c(=O)n1-c1cccc(Cl)c1 [Example D-20, 2-[4-(3-chlorophenyl)-1-{3-fluoro-4-[2-(morpholin-4-yl)ethyl]phenyl}-5-oxo-4,5-dihydro-1H-1,2,4-triazol-3-yl]-N-(propan-2-yl)acetamide] | 20
20 | CC(C)NC(=O)Cc1nn(-c2ccc(CCN3C4CCC3COC4)c(F)c2)c(=O)n1-c1cccc(Cl)c1 [Example D-21, 2-[4-(3-chlorophenyl)-1-{3-fluoro-4-[2-(3-oxa-8-azabicyclo[3.2.1]oct-8-yl)ethyl]phenyl}-5-oxo-4,5-dihydro-1H-1,2,4-triazol-3-yl]-N-(propan-2-yl)acetamide] | 7.5
21 | COc1cc(-n2nc(CC(=O)NC(C)C)n(-c3cccc(Cl)c3)c2=O)ccc1CCN1CCOCC1 [Example D-22, 2-[4-(3-chlorophenyl)-1-{3-methoxy-4-[2-(morpholin-4-yl)ethyl]phenyl}-5-oxo-4,5-dihydro-1H-1,2,4-triazol-3-yl]-N-(propan-2-yl)acetamide] | 12
22 | COc1cc(-n2nc(CC(=O)NC(C)C)n(-c3cccc(Cl)c3)c2=O)ccc1CCN1C2CCC1COC2 [Example D-23, 2-[4-(3-chlorophenyl)-1-{3-methoxy-4-[2-(3-oxa-8-azabicyclo[3.2.1]oct-8-yl)ethyl]phenyl}-5-oxo-4,5-dihydro-1H-1,2,4-triazol-3-yl]-N-(propan-2-yl)acetamide] | 3.3
23 | CC(C)NC(=O)Cc1nn(-c2ccc(CCN3C4CCC3COC4)cc2F)c(=O)n1-c1cccc(Cl)c1 [Example D-24, 2-[4-(3-chlorophenyl)-1-{2-fluoro-4-[2-(3-oxa-8-azabicyclo[3.2.1]oct-8-yl)ethyl]phenyl}-5-oxo-4,5-dihydro-1H-1,2,4-triazol-3-yl]-N-(propan-2-yl)acetamide] | 10 to 100
24 | COc1cc(CCN2C3CCC2COC3)ccc1-n1nc(CC(=O)NC(C)C)n(-c2cccc(Cl)c2)c1=O [Example D-25, 2-[4-(3-chlorophenyl)-1-{2-methoxy-4-[2-(3-oxa-8-azabicyclo[3.2.1]oct-8-yl)ethyl]phenyl}-5-oxo-4,5-dihydro-1H-1,2,4-triazol-3-yl]-N-(propan-2-yl)acetamide] | 100 to 1000
25 | CC(C)NC(=O)Cc1nn(-c2ccc(CCN3CCOCC3)cc2)c(=O)n1-c1ccc(F)c(Cl)c1 [Example D-26, 2-[4-(3-chloro-4-fluorophenyl)-1-{4-[2-(morpholin-4-yl)ethyl]phenyl}-5-oxo-4,5-dihydro-1H-1,2,4-triazol-3-yl]-N-(propan-2-yl)acetamide] | 4.4
26 | CC(C)NC(=O)Cc1nn(-c2ccc(CCN3C4CCC3COC4)cc2)c(=O)n1-c1ccc(F)c(Cl)c1 [Example D-27, 2-[4-(3-chloro-4-fluorophenyl)-1-{4-[2-(3-oxa-8-azabicyclo[3.2.1]oct-8-yl)ethyl]phenyl}-5-oxo-4,5-dihydro-1H-1,2,4-triazol-3-yl]-N-(propan-2-yl)acetamide] | 5.3
27 | CC(C)NC(=O)Cc1nn(-c2ccc(CCN3CCOCC3)cn2)c(=O)n1-c1ccc(F)c(Cl)c1 [Example D-28, 2-[4-(3-chloro-4-fluorophenyl)-1-{5-[2-(morpholin-4-yl)ethyl]pyridin-2-yl}-5-oxo-4,5-dihydro-1H-1,2,4-triazol-3-yl]-N-(propan-2-yl)acetamide] | 10 to 100
28 | CC(C)NC(=O)Cc1nn(-c2ccc(CCN3C4CCC3COC4)cn2)c(=O)n1-c1ccc(F)c(Cl)c1 [Example D-29, 2-[4-(3-chloro-4-fluorophenyl)-1-{5-[2-(3-oxa-8-azabicyclo[3.2.1]oct-8-yl)ethyl]pyridin-2-yl}-5-oxo-4,5-dihydro-1H-1,2,4-triazol-3-yl]-N-(propan-2-yl)acetamide] | 10 to 100
